From US8390681B1, “Computer assisted semen analyzer to analyze digital video clips received from a remote location” (LifeCell Dx, Inc., priority 2008, dated 2013)

Columns and labels:
human sperm = test: Human sperm vigorous swimming (Hyperactivation, computer-tracking); type: cell-based
Excerpt: Fertilization assays include changes in human sperm vigorous swimming (Hyperactivation, computer-tracking), changes in % moving, and changes in the ability of drug-treated sperm to complete the acrosome reaction, and ability to bind to the human egg cover (Hemizona assay).

fertilization capacity = test: Fertilization capacity, concentration dependence of cannabinoids; conditions: higher concentrations
mouse sperm = test: Mouse sperm pre-treated with drug, then artificial insemination into the mouse uterus; fertilization and embryo development scored; type: in vivo
Excerpt: Studies show the cannabinoid implications in vivo in the mouse model. In separate experiments, mouse sperm are pre-treated with Meth-anandamide or AM-1346 and then the mouse sperm are inseminated into the mouse uterus (artificial insemination).
Each egg could be scored as 1-cell, 2-cell, 3-4 cell, 5-8 cell, morula, blastocysts or degenerated. Brief exposure of the sperm to the drug before insemination produces significant inhibition of 5 parameters. Compared to Control, the treated animals ovulate fewer ova (p<0.01, t-test). […] By Day 2, treatment produces a lower % of 2-cell eggs—again, fewer eggs are cleaving. […] The drug severely impairs fertilization and embryo development.

[1] = sperm pre-treated with 100 nM, Day 1
[2] = sperm pre-treated with 100 nM, Day 3

| Compound | vigorous swimming of human sperm (human sperm) | effect on fertilization capacity (fertilization capacity) | Number embryos per female (mouse sperm; sperm pre-treated with 100 nM before insemination) | % ova as 1-cell on Day 1 (mouse sperm; [1]) [%] | Number of 2-cells on Day 1 (mouse sperm; [1]) | % embryos >2-cell on Day 3 (mouse sperm; [2]) [%] | % embryos degenerated on Day 3 (mouse sperm; [2]) [%] |
| --- | --- | --- | --- | --- | --- | --- | --- |
| CCCCC/C=C\C/C=C\C/C=C\C/C=C\CCCC(=O)NCc1ccoc1 [UCM] | blocks | – | – | – | – | – | – |
| CCCCC/C=C\C/C=C\C/C=C\C/C=C\CCCC(=O)NCCO [Anandamide, arachidonoyl-ethanolamide] | – | trends towards reduced fertilization capacity | – | – | – | – | – |
| CCCCC/C=C\C/C=C\C/C=C\C/C=C\CCCC(=O)N[C@H](C)CO [Methanandamide, R-methanandamide] | – | biphasic effect: Higher concentrations produce inhibition | 4.3 ± 0.7 | 91.3 | 0.6 ± 0.2 | 25.0 | 44.2 |
